Measured values: patent publication US20090203785A1, “METHOD AND PROCESS FOR PRODUCING YOUTHFUL-APPEARING, SMALL-PORED, AND SMOOTH SKIN” (priority 2002, published 2009)

Test system: acne vulgaris
Test: topical retinoic acid plus laser-induced explosion of carbon particles on the skin of a patient with acne vulgaris (FIG. 4)
Assay type: in vivo
Details: combination with exploding carbon particles (Q-switched laser); after first six months of treatment; one patient
Description: In the first step 40, pre-treatment is initiated with topical retinoic acid applied to the skin at least twice per week. The concentration of retinoic acid in the topical formulation is between about 0.05% to 1% preferably about 0.1%. […] In the next step 41, a solution of carbon particles in baby oil is applied to the skin. The carbon particle-oil ratio may range from about 1:1 to 1:9, preferably 1:4, i.e., about 25 percent carbon particles suspended in about 75 percent oil by weight. In the next steps 42 and 43 a laser beam is scanned over the skin treated with the carbon particle solution so as to clean substantially all of the carbon particles from the skin surface by exploding or fracturing the carbon particles. This scanning process takes from about 2 to 10 minutes to complete on the face, usually about 4 minutes, exposing the carbon particles only to 1 or 2 pulses of laser light.
The wave length of the radiation may range from about 800 nM to 1200 nM, preferably about 1064 nM. The frequency of the pulses from the laser range from about 1 to 20 per second, preferably, about 10 per second. The duration of each pulse ranges from about 0.001 to 1 microseconds, preferably about 0.1 microseconds. The fluence or exposure of the skin treated with the carbon particles ranges from about 1 to 3 J/cm^2. […]

## CC1=C(/C=C/C(C)=C/C=C/C(C)=C/C(=O)O)C(C)(C)CCC1 [retinoic acid]
  state of the epidermis / stratum corneum after treatment: leaving the epidermis intact and normal, with no removal of stratum corneum
